In patent publication US20240358692A1, “TREATMENT OF SCLERODERMA” (Aisa Pharma, Inc., priority 2023, published 2024):

Test system: participants with SSc-RP
Assay: Average duration of weekly RP attacks (minutes), patient diary
Type: in vivo, human
Conditions: for Average Duration of Weekly RP Attacks (All Attacks), Mean / Average Duration of Weekly RP Attacks (All Attacks), Median: first subgroup of table
Text: The absolute change in average duration of weekly RP attacks from baseline to the end of each dosing period was and will be a secondary outcome variable. The sponsor-developed participant-informed diary was and will be used to record data. Average duration of weekly RP attacks is defined as the total duration of RP attacks divided by total number of RP attacks within the last 7 days of each dosing period. Total duration of RP attacks during the last 7 days of screening period divided by the total number of RP attacks will be used as baseline for the analysis of all periods. The variable will be calculated similar to frequency data as before.

[1] = Cilnidipine 10 mg, Excluding Outliers, ITT Population - Part A
[2] = Cilnidipine 10 mg, Excluding Outliers, by Baseline RCS, first RCS subgroup of table (not named), ITT Population - Part A
[3] = Cilnidipine 10 mg, by Baseline RCS, first RCS subgroup of table (not named), ITT Population - Part A
[4] = Cilnidipine 10 mg, by Baseline RCS, ITT Population - Part A
[5] = Cilnidipine 20 mg, Excluding Outliers, ITT Population - Part A
[6] = Cilnidipine 20 mg, Excluding Outliers, by Baseline RCS, first RCS subgroup of table (not named), ITT Population - Part A
[7] = Cilnidipine 20 mg, by Baseline RCS, first RCS subgroup of table (not named), ITT Population - Part A
[8] = Cilnidipine 20 mg, by Baseline RCS, ITT Population - Part A
[9] = Pooled Cilnidipine 10 mg and Cilnidipine 10 mg + Tadalafil 5 mg, Excluding Outliers, ITT Population - Part A
[10] = Pooled Cilnidipine 10 mg and Cilnidipine 10 mg + Tadalafil 5 mg, ITT Population - Part A

## COCCOC(=O)C1=C(C)NC(C)=C(C(=O)OC/C=C/c2ccccc2)C1c1cccc([N+](=O)[O-])c1 (centres unmarked) [Cilnidipine]
[1]
  Average Duration of Weekly RP Attacks (All Attacks), Change from Baseline, Mean: -8.48 min
  Average Duration of Weekly RP Attacks (All Attacks), Percent Change from Baseline, Mean: −21.20%
  Average Duration of weekly symptomatic RP attacks, Mean: 31.64 min
  Average Duration of weekly symptomatic RP attacks, Median: 31.64 min
  Percent Change from Baseline in average duration of weekly symptomatic RP attacks, Median: −34.60%
[2]
  Average Duration of weekly symptomatic RP attacks, Mean: 31.64 min
  Average Duration of weekly symptomatic RP attacks, Median: 31.64 min
  Change from Baseline in average duration of weekly symptomatic RP attacks, Mean: -16.74 min
  Change from Baseline in average duration of weekly symptomatic RP attacks, Median: -16.74 min
  Percent Change from Baseline in average duration of weekly symptomatic RP attacks, Mean: −34.60%
  Percent Change from Baseline in average duration of weekly symptomatic RP attacks, Median: −34.60%
Cilnidipine 10 mg, ITT Part A
  Average Duration of Weekly Symptomatic RP Attacks Change from Baseline, Mean: -16.74 min
  Average Duration of Weekly Symptomatic RP Attacks Change from Baseline, Median: -16.74 min
  Average Duration of Weekly Symptomatic RP Attacks Percent Change from Baseline, Mean: −34.60%
  Average Duration of Weekly Symptomatic RP Attacks Percent Change from Baseline, Median: −34.60%
[3]
  Average Duration of weekly symptomatic RP attacks, Mean: 31.64 min
  Average Duration of weekly symptomatic RP attacks, Median: 31.64 min
  Change from Baseline in average duration of weekly symptomatic RP attacks, Mean: -16.74 min
  Change from Baseline in average duration of weekly symptomatic RP attacks, Median: -16.74 min
  Percent Change from Baseline in average duration of weekly symptomatic RP attacks, Mean: −34.60%
  Percent Change from Baseline in average duration of weekly symptomatic RP attacks, Median: −34.60%
[4]
  Average Duration of Weekly RP Attacks (All Attacks), Mean: 31.52 min
  Average Duration of Weekly RP Attacks (All Attacks), Median: 31.52 min
Cilnidipine 10 mg, last 7 days of dosing period, ITT Part A
  Average Duration of weekly symptomatic RP attacks, Mean: 31.64 min
Cilnidipine 20 mg (n = 3)
  Duration (change): −20%
[5]
  Average Duration of Weekly RP Attacks (All Attacks), Change from Baseline, Mean: -1.09 min
  Average Duration of Weekly RP Attacks (All Attacks), Change from Baseline, Median: -1.09 min
  Average Duration of Weekly RP Attacks (All Attacks), Percent Change from Baseline, Mean: −24.97%
  Average Duration of Weekly RP Attacks (All Attacks), Percent Change from Baseline, Median: −24.97%
  Average Duration of weekly symptomatic RP attacks, Mean: 16.73 min
  Average Duration of weekly symptomatic RP attacks, Median: 16.73 min
  Change from Baseline in average duration of weekly symptomatic RP attacks, Mean: -3.13 min
  Change from Baseline in average duration of weekly symptomatic RP attacks, Median: -3.13 min
  Percent Change from Baseline in average duration of weekly symptomatic RP attacks, Mean: −31.05%
  Percent Change from Baseline in average duration of weekly symptomatic RP attacks, Median: −31.05%
[6]
  Average Duration of weekly symptomatic RP attacks, Mean: 16.73 min
  Average Duration of weekly symptomatic RP attacks, Median: 16.73 min
  Change from Baseline in average duration of weekly symptomatic RP attacks, Mean: -3.13 min
  Change from Baseline in average duration of weekly symptomatic RP attacks, Median: -3.13 min
  Percent Change from Baseline in average duration of weekly symptomatic RP attacks, Mean: −31.05%
  Percent Change from Baseline in average duration of weekly symptomatic RP attacks, Median: −31.05%
Cilnidipine 20 mg, ITT Part A
  Average Duration of Weekly Symptomatic RP Attacks Change from Baseline, Mean: -3.13 min
  Average Duration of Weekly Symptomatic RP Attacks Change from Baseline, Median: -3.13 min
  Average Duration of Weekly Symptomatic RP Attacks Percent Change from Baseline, Mean: −31.05%
  Average Duration of Weekly Symptomatic RP Attacks Percent Change from Baseline, Median: −31.05%
[7]
  Average Duration of weekly symptomatic RP attacks, Mean: 16.73 min
  Average Duration of weekly symptomatic RP attacks, Median: 16.73 min
  Change from Baseline in average duration of weekly symptomatic RP attacks, Mean: -3.13 min
  Change from Baseline in average duration of weekly symptomatic RP attacks, Median: -3.13 min
  Percent Change from Baseline in average duration of weekly symptomatic RP attacks, Mean: −31.05%
  Percent Change from Baseline in average duration of weekly symptomatic RP attacks, Median: −31.05%
[8]
  Average Duration of Weekly RP Attacks (All Attacks), Mean: 16.73 min
  Average Duration of Weekly RP Attacks (All Attacks), Median: 16.73 min
[9]
  Average Duration of weekly symptomatic RP attacks, Median: 31.64 min
  Change from Baseline in average duration of weekly symptomatic RP attacks, Mean: -12.11 min
  Change from Baseline in average duration of weekly symptomatic RP attacks, Median: -16.74 min
  Percent Change from Baseline in average duration of weekly symptomatic RP attacks, Mean: −22.40%
  Percent Change from Baseline in average duration of weekly symptomatic RP attacks, Median: −33.84%
Pooled Cilnidipine 10 mg and Cilnidipine 10 mg + Tadalafil 5 mg, ITT Part A
  Average Duration of Weekly Symptomatic RP Attacks Change from Baseline, Median: -16.74 min
[10]
  Average Duration of Weekly RP Attacks (All Attacks), Change from Baseline, Median: -8.48 min
  Average Duration of Weekly RP Attacks (All Attacks), Percent Change from Baseline, Median: −21.20%
Pooled Cilnidipine 10 mg and Cilnidipine 10 mg + Tadalafil 5 mg, by Baseline RCS, first RCS subgroup of table (not named), ITT Population - Part A
  Percent Change from Baseline in average duration of weekly symptomatic RP attacks, Mean: −16.67%
